Consider 26 molecules from patent US20050043534A1, “Modulators of ceramidase and methods of used based thereon” (priority 2001, published 2005).

The target of this assay is mitochondrial ceramidase (Rattus norvegicus, UniProt Q91XT9). Nature of the assay: mitochondrial ceramidase (mt-CDase) activity, radioactive assay or HPLC assay. The assay is classed as biochemical. Particulars: for effect on mt-CDase activity (in words): concentrations as stated at the place; for inhibition at 50 µM: read-out: inhibition (maximal inhibition) of mt-CDase activity; for IC50 (50% inhibition of mt-CDase activity): substrate D-erythro-ceramide 0.625 mole %; for type of inhibition (double reciprocal analysis: Km increased, Vmax unchanged): varying D-erythro-ceramide concentration; for increase in ceramide hydrolysis: tested at 0-5 mole % (0-400 μM), [3H]-C16-ceramide 0.625 mole %; for inhibition of mt-CDase activity: inhibitor at 0.6 mole %; for IC50: substrate D-erythro-ceramide 50 μM; for extent of inhibition of ceramidase: sphingosine stereoisomers at higher concentrations (FIG. 4b). On the procedure: The enzymatic activity of mitochondrial ceramidase was determined by either one of the two following methods:
a. Radioactive assay: The mt-CDase activity was determined by measuring the release of radioactive fatty acid from tritiated ceramide ([^3H]-C16-Cer), labeled in the acyl chain. Briefly, organic solutions of ceramide and its analogues were initially mixed together, solvents were completely evaporated under nitrogen, then the dried lipids were dispersed in Triton-X 100 by sonication and vigorous vortexing. The reaction assay contained (in a final volume of 200 μl): enzyme (5-10 ng) and 10 nmoles of tritiated C16-ceramide (1×10^5 dpm) delivered in 100 μl of 1% Triton X-100 micelles in a glycine buffer pH 9.5 (200 mM).
b. HPLC-assay: The Mt-CDase activity was also determined by measuring the amount of sphingosine released. Basically the assay was initially the same as described above but using non-radioactive ceramide. The reaction was stopped with 800 μl of chloroform: methanol (2:1 v/v) mixture followed by the addition of phyto-sphingosine (0.5 nmoles) and dihydro-sphingosine (1 nmole) as internal standard and carrier, respectively. The reaction mix was then extracted with NaOH (50 μl, 1N), and the lower chloroform layer containing the sphingosine was further washed with water (100 μl) and dried. The released sphingosine was quantified as the ortho-phthaldehyde (OPA) derivatives as described (30). […] The solvent system was methyl alcohol: potassium phosphate buffer (5 mM), pH 7.0 (90:10 v/v) at a flow rate of 1 ml/min. […] Activity was determined relative to the phytosphingosine OPA peak.
The effects of various compounds of the invention which are stereochemical and structural analogues of ceramide and sphingosine on mt-CDase were investigated. […] Results were expressed as percent of the control ceramidase activity.

Where [1] appears, read: Table 1, ceramide analogues, hydrolysis of D-erythro-C16 or C18-ceramide at 0.625 mole % (50 μM).
The mark [2] stands for this setting: inhibitor at 0.625 mole % (50 μM).
Where [3] appears, read: Table 2, sphingosine analogues, hydrolysis of D-erythro-ceramide at 0.625 mole % (50 μM).

By inhibition is commonly meant the percentage by which the read-out fell short of the control. A word on the IC50: it is the concentration that inhibits the measured activity by half.

Where “and” joins values, the source holds several entries; their conditions need not be identical. Equal values may be shown once. Entries after “also recorded” stand apart in the source; their conditions may differ.

Chain of mitochondrial ceramidase (Q91XT9 whole entry): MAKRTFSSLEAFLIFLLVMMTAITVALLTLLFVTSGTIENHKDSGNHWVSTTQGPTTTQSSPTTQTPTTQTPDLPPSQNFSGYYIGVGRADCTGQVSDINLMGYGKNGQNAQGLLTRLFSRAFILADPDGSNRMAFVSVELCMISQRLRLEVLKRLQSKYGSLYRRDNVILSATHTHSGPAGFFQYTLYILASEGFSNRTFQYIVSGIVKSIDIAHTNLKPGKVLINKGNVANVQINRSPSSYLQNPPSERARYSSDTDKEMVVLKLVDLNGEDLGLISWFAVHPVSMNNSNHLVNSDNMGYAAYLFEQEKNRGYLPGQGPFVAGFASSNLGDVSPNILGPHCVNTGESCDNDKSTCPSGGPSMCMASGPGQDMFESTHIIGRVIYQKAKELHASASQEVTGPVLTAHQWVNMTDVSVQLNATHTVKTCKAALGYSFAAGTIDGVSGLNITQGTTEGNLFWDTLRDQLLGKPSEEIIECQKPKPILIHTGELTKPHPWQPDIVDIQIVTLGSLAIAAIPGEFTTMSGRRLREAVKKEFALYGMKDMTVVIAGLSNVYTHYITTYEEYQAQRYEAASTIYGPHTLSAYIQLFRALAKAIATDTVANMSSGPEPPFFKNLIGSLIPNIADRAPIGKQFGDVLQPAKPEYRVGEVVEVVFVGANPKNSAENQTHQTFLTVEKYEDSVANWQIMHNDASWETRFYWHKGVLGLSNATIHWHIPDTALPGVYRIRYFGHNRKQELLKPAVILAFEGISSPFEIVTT

Consider `CCCCCCCCCCCCC/C=C/[C@@H](O)[C@H](COC)NC(=O)CCCCCCCCCCCCCCC` [1-O-Me-C16-Cer, 1-O-methyl-D-erythro-C16-ceramide], for which the “Estimated IC50 (mole %)” value under setting [1] is “no effect”. The “effect on mt-CDase activity (in words)” value reads like this: (listed as 1-O-Me-ceramide) “do not interact with the enzyme”; (listed as 1-O-methyl ceramide) “no effect”.

For the molecule `CCCCCCCCCCCCC/C=C/[C@@H](OC)[C@H](CO)NC(=O)CCCCCCCCCCCCCCC` [3-O-Me-C16-Cer, 3-O-methyl-D-erythro-C16-ceramide], the “Estimated IC50 (mole %)” value under setting [1] is “no effect”. Besides, the “effect on mt-CDase activity (in words)” value (listed as 3-O-Me-ceramide) was “do not interact with the enzyme” and the “effect on mt-CDase activity (in words)” value (listed as 3-O-methyl ceramide) was “no effect”.

With `CCCCCCCCCCCCC/C=C/C(=O)[C@H](CO)NC(=O)CCCCCCCCCCCCCCC` [3-keto-C16-Cer, 3-keto-C16-ceramide], the “hydrolysis by mt-CDase (substrate or not, in words)” value is listed as “served as a substrate”; the “IC50 (50% inhibition of mt-CDase activity)” value came out at 0.60 mole %; the “type of inhibition (double reciprocal analysis: Km increased, Vmax unchanged)” value was “competitive substrate”. The “Estimated IC50 (mole %)” value under setting [1] is 0.6 mole %. Further, the inhibition at 50 µM under setting [2] amounted to 53%.

For `CCCCCCCCCCCCCC#CC(=O)[C@@H](N)CO` [3-keto-deh-Sph, 3-keto-dehydrosphingosine], the “effect on mt-CDase activity (in words)” value is “weaker”. Under setting [3], the “Estimated IC50 (mole %)” value was “weak”. Besides, the inhibition at 50 µM under setting [2] came out at 15%.

As for `CCCCCCCCCCCCCCCC(=O)C(N)CO` (stereo not shown) [3-keto-dh-Sph, 3-keto-dihydrosphingosine], the “effect on mt-CDase activity (in words)” value is listed as “potent inhibitor” and the “IC50 (50% inhibition of mt-CDase activity)” value is 0.34 mole %. Moreover, the “Estimated IC50 (mole %)” value under setting [3] is listed as 0.2 mole %. The “inhibition (maximal inhibition) of mt-CDase activity” value under setting [2] was found to be 75%.

As to `CCCCCCCCCCCCC/C=C/[C@@H](O)[C@H](COP(=O)(O)O)NC(=O)CCCCCCCCCCCCCCC` [Cer-1-P, D-erythro-C16-ceramide-1-phosphate], the “effect on mt-CDase activity (in words)” value was “do not interact with the enzyme” and the “increase in ceramide hydrolysis” value amounted to 220%. Also, the “Estimated IC50 (mole %)” value under setting [1] was “activator”.

As for `CCCCCCCCCCCCC/C=C/[C@@H](O)[C@@H](N)COC` [Compound 1-O-Me-Sph, 1-O-methyl-D-erythro-sphingosine], the “effect on mt-CDase activity (in words)” value is “weaker” and the “inhibition of mt-CDase activity” value is recorded as ~25%. Further, the “Estimated IC50 (mole %)” value under setting [3] was “weak”.

`CCCCCCCCCCCCC/C=C/[C@@H](OC)[C@@H](N)CO` [Compound 3-O-Me-Sph, 3-O-methyl-D-erythro-sphingosine]: the “inhibition of mt-CDase activity” value is “no effect”. For the same molecule, under setting [3], the “Estimated IC50 (mole %)” value is “no effect”.

With `CCCCCCCCCCCCC/C=C/C(=O)[C@@H](N)CO` [Compound 3-keto-Sph, 3-keto-sphingosine], the “effect on mt-CDase activity (in words)” value is “weaker; also recorded: significant loss of inhibition”. The “Estimated IC50 (mole %)” value under setting [3] was “weak”. Under setting [2], the inhibition at 50 µM was found to be 35%.

Turning to `CCCCCCCCCCCCC/C=C/[C@@H](O)[C@H](CO)NCCCCCCCCCCCCCCCCCC` [Compound C18-Ceramine, N-stearyl-D-erythro-sphingosine], the “type of inhibition (double reciprocal analysis: Km increased, Vmax unchanged)” value was “competitive inhibitor”. The “Estimated IC50 (mole %)” value under setting [3] is on record as 0.5 mole %. For the same molecule, the inhibition at 100 µM (inhibitor at 1.25 mole % (100 μM)) stood at 75%.

In the case of `CCCCCCCCCCCCC/C=C/[C@@H](O)[C@H](CO)NC(=O)CCCCCCCCCCCCCCCCC` [D-e-C18-Cer, D-erythro-C18-ceramide, reference compound], the “Estimated IC50 (mole %)” value under setting [1] is given as “substrate”.

Regarding `CCCCCCCCCCCCC/C=C/[C@@H](O)[C@@H](N)CO` [D-e-Sph, D-erythro-sphingosine, reference compound], the “inhibition of mt-CDase activity” value is given as “totally inhibited”, the IC50 turned out to be 3.3 µM and the “IC50 (50% inhibition of mt-CDase activity)” value was 0.04 mole %. In addition, the “Estimated IC50 (mole %)” value under setting [3] is 0.04 mole %. Also, under setting [2], the inhibition at 50 µM is 98%.

For the molecule `CCCCCCCCCCCCCC#C[C@@H](O)[C@@H](N)CO` [D-e-deh-Sph, D-erythro-dehydrosphingosine], the “IC50 (50% inhibition of mt-CDase activity)” value came to 0.25 mole %. For the same molecule, the “Estimated IC50 (mole %)” value under setting [3] is recorded as 0.25 mole %. Besides, the inhibition at 50 µM under setting [2] worked out at 75%.

With `CCCCCCCCCCCCCCC[C@@H](O)[C@@H](N)CO` [D-e-dh-Sph, D-erythro-dihydrosphingosine], the “IC50 (50% inhibition of mt-CDase activity)” value was 0.20 mole % and 0.34 mole %. Besides, the “Estimated IC50 (mole %)” value under setting [3] is recorded as 0.34 mole %.

Take `CCCCCCCCCCCCC/C=C/[C@@H](O)[C@@H](CO)NC(=O)CCCCCCCCCCCCCCCCC` [D-t-C18-Cer, D-threo-C18-ceramide]: the IC50 worked out at 16.6 µM and the “IC50 (50% inhibition of mt-CDase activity)” value is listed as 0.21 mole %. The “Estimated IC50 (mole %)” value under setting [1] is reported as 0.21 mole %.

`CCCCCCCCCCCCC/C=C/[C@@H](O)[C@H](N)CO` [D-t-Sph, D-threo-sphingosine]: the “extent of inhibition of ceramidase” value is recorded as 75%. The “Estimated IC50 (mole %)” value under setting [3] is 0.11 mole %.

Take `CCCCCCCCCCCCC/C=C/[C@H](O)[C@@H](CO)NC(=O)CCCCCCCCCCCCCCCCC` [L-e-C18-Cer, L-erythro-C18-ceramide]: the IC50 is 20 µM; the “IC50 (50% inhibition of mt-CDase activity)” value is 0.26 mole %; the “type of inhibition (double reciprocal analysis: Km increased, Vmax unchanged)” value is “competitive”. Under setting [1], the “Estimated IC50 (mole %)” value is listed as 0.26 mole %.

For the molecule `CCCCCCCCCCCCC/C=C/[C@H](O)[C@H](N)CO` [L-e-Sph, L-erythro-sphingosine], the “extent of inhibition of ceramidase” value worked out at 98%. The “Estimated IC50 (mole %)” value under setting [3] was 0.09 mole %.

As to `CCCCCCCCCCCCC/C=C/[C@H](O)[C@H](CO)NC(=O)CCCCCCCCCCCCCCCCC` [L-t-C18-Cer, L-threo-C18-ceramide], the concentration for half-maximal inhibition (IC50) is 8.8 µM and the “IC50 (50% inhibition of mt-CDase activity)” value was 0.11 mole %. Further, the “Estimated IC50 (mole %)” value under setting [1] is 0.11 mole %.

Take `CCCCCCCCCCCCC/C=C/[C@H](O)[C@@H](N)CO` [L-t-Sph, L-threo-sphingosine]: the “extent of inhibition of ceramidase” value is given as 60%. The “Estimated IC50 (mole %)” value under setting [3] is listed as 0.14 mole %.

As for `CCCCCCCCCCCCC/C=C/[C@@H](O)[C@H](CO)N(C)C` [N,N-diMe-Sph, N,N-dimethyl-D-erythro-sphingosine], the “effect on mt-CDase activity (in words)” value was “weaker; also recorded: profound loss of activity”. Further, under setting [3], the “Estimated IC50 (mole %)” value is recorded as “weak”. Besides, the “maximal inhibition of mt-CDase” value (inhibitor at 2.5 mole %) is reported as 30%.

`CCCCCCCCCCCCC/C=C/[C@@H](O)[C@H](CO)N(C)C(=O)CCCCCCCCCCCCCCC` [N-Me-C16-Cer, N-methyl-D-erythro-C16-ceramide]: under setting [1], the “Estimated IC50 (mole %)” value is “no effect”. For the same molecule, the “effect on mt-CDase activity (in words)” value (listed as N-Me-Cer) is on record as “loss of the interaction”, the “effect on mt-CDase activity (in words)” value (listed as N-Me-ceramide) is reported as “do not interact with the enzyme” and the “effect on mt-CDase activity (in words)” value (listed as N-methyl-ceramide) is “did not affect ceramidase activity”.

On to `CCCCCCCCCCCCC/C=C/[C@@H](O)[C@H](CO)NC` [N-Me-Sph, N-methyl-D-erythro-sphingosine], for which the “IC50 (50% inhibition of mt-CDase activity)” value is recorded as 0.13 mole %. Besides, the “inhibitory effect on mt-CDase” value (FIG. 6a, concentration not stated directly) stood at 75%. The “Estimated IC50 (mole %)” value under setting [3] is 0.13 mole %.

`CCCCCCCCCCCCC/C=C/[C@@H](O)[C@@H](N)COP(=O)(O)O` [Sph-1-P, D-erythro-sphingosine 1-phosphate]: the “increase in ceramide hydrolysis” value stood at 180%. Moreover, under setting [3], the “Estimated IC50 (mole %)” value is “activator”.

Consider `CCCCCCCCCCCCC/C=C\[C@@H](O)[C@H](CO)NC(=O)CCCCCCCCCCCCCCC` [cis-D-e-C16-Cer, cis-D-erythro-C16-ceramide], for which the “effect on mt-CDase activity (in words)” value was “no significant effect”. Moreover, under setting [1], the “Estimated IC50 (mole %)” value is “no effect”. Further, the “effect on mt-CDase activity (in words)” value (listed as cis D-erythro-ceramide) is recorded as “did not inhibit the enzyme”. Moreover, the “effect on mt-CDase activity (in words)” value (listed as cis-D-e-ceramide) is “do not interact with the enzyme”.

`CCCCCCCCCCCCC/C=C\[C@@H](O)[C@@H](N)CO` [cis-D-e-Sph, cis-D-erythro-sphingosine]: the “effect on mt-CDase activity (in words)” value is listed as “weaker; also recorded: no effect; also recorded: weak inhibitor”. Further, the “Estimated IC50 (mole %)” value under setting [3] is recorded as “weak”. For the same molecule, the “maximal inhibition of ceramide hydrolysis” value (at higher concentrations, greater than 2 mole %) is 32%. Further, the inhibition at 50 µM under setting [2] is 10%.
